Laboratory results published in patent US10093679B2, “Amino sulfonyl-based compounds, the preparation method therefor and use thereof” (SUZHOU VIGONVITA LIFE SCIENCES CO., LTD., priority 2014, dated 2018).
Read-outs that look alike come from different tables or passages of the source.

Legend:
[1] = system: maximal electroshock seizure; conditions: literature value, cited from earlier work
[2] = biological target: T1, Human carbonic anhydrase II (CA-II) (Homo sapiens, UniProt P00918); assay: Inhibiting effect on carbonic anhydrase (CO2 hydration, bromothymol blue colour change); type: biochemical
T1 construct: purchased Sigma
Protocol: Preparation Method of the Reagent
Chromogenic Buffer Solution:
HEPES was dissolved in distilled water to prepare a solution with a concentration of 10 mM; the pH was adjusted to 7.7 with 1 M Tris at 23° C.; bromothymol blue was dissolved in HEPES buffer solution with pH 7.7 to a concentration of 50 mg/L;
Saturated CO2-ice water was prepared by adding dry ice into icy distilled water.
Solution of CA-II enzyme was prepared into a concentration of 2 m/ml, and stored at −20° C.
Tested sample was prepared by using distilled water as solvent with various concentrations.
The time required for changing into yellow was recorded. The time required for the blank tube was recorded as t0, the time required for the standard tube was recorded as ts and the time required for the test tube was recorded as t. (t0−ts)/ts was normal activity of enzyme, and (t0−t)/t was the activity after affecting by the test compound.

[3] = system: maximal electroshock seizure; assay: Maximal electroshock seizure (MES) test on mice; type: in vivo; conditions: 100 mg/kg intragastric
Text: The Maximal Electroshock Seizure Test on Mice
MES (maximal electroshock seizure test) was used to evaluate whether the compounds have an effect against […] and thus to make preliminary evaluation of the efficacy of each compound in treating epilepsy. Multipurpose instrument for pharmacological and biological experiments (mode, YSD-4G) was used to conduct experiments under the condition of convulsive mode, 115V of stimulation voltage, 250 ms of stimulation time, 50 HZ AC voltage. Positive and negative electrodes were used to clamp the left and right ear of the mice, respectively, which were wetted by normal saline. The tonic hind limb extension seizure after stimulation was deemed as judgment standard of grand mal. The mice were randomly divided into groups. The compounds were given by intragastric administration based on the dose of 100 mg/kg.

[4] = Influence on rats' serum total cholesterol and triglyceride; type: in vivo, SD rats; parameters: total cholesterol / triglyceride: unit not given here; conditions: for total cholesterol / triglyceride: rats' serum, 5 weeks after administration
Protocol: Study on the Influence of the Compounds on the Rats' Total Cholesterol and Triglyceride
50 male SD rats with weight of 180˜200 g were randomly divided into groups with 8 in each group. […] 5 weeks after administration, the level of total cholesterol and triglyceride in rats' serum were determined and the results were shown in table 2.

| SMILES | Inhibition rate of epileptic seizure ([3]; 0.5 h after administration) | Inhibition rate of epileptic seizure ([3]; 1.5 h after administration) | Inhibition rate of epileptic seizure ([3]; 2 h after administration) | other results |
| --- | --- | --- | --- | --- |
| NS(=O)(=O)NCc1csc2ccccc12 [JNJ-26990990] |  |  |  | Inhibition rate of epileptic seizure ([1]; 0.5 h): 20%; Inhibition rate of epileptic seizure ([1]; 2 h): 60% |
| NS(=O)(=O)NCc1noc2ccccc12 [Example 3, N-[(benzo[d]isoxazol-3-yl)methyl]-sulfamide] | 88.9% | 66.7% | 77.8% | IC50 [2]: 154 µM; inhibiting effect on carbonic anhydrase compared with reference drugs (in words) [2]: poorer inhibiting effect than topiramate and zonisamide; total cholesterol ([4]; 20 mg/kg intragastric): 1.64 ± 0.28; triglyceride ([4]; 20 mg/kg intragastric): 1.13 ± 0.24; total cholesterol ([4]; 40 mg/kg intragastric): 1.53 ± 0.17; triglyceride ([4]; 40 mg/kg intragastric): 0.99 ± 0.16; total cholesterol ([4]; 80 mg/kg intragastric): 1.32 ± 0.21; triglyceride ([4]; 80 mg/kg intragastric): 0.84 ± 0.06; effect on the level of total cholesterol and triglyceride (in words) ([4]; rats' serum, 20, 40, 80 mg/kg, 5 weeks): significantly decrease |
| NS(=O)(=O)Cc1noc2ccccc12 [Zonisamide, reference compound] | 33.3% | 16.7% | 16.7% |  |
| CC1(C)O[C@@H]2[C@@H](CO[C@@]3(COS(N)(=O)=O)OC(C)(C)O[C@@H]23)O1 [Topiramate, reference compound] | 37.5% | 37.5% |  | total cholesterol ([4]; 40 mg/kg intragastric): 1.56 ± 0.19; triglyceride ([4]; 40 mg/kg intragastric): 1.45 ± 0.34 |
| NS(=O)(=O)NCc1noc2cc(F)ccc12 [Example 2, N-[(6-fluoro-benzo[d]isoxazol-3-yl)methyl]-sulfamide] |  |  | 33.3% |  |
| NS(=O)(=O)NCc1ccsc1Cl [Example 13, N-[(2-chloro-3-thienyl)methyl]-sulfamide] | 37.5% |  |  |  |
| CN(C)S(=O)(=O)NCc1noc2ccccc12 [Example 9, N-[(benzo[d]isoxazol-3-yl)methyl]-N′,N′-dimethyl-sulfamide] | 44.4% |  | 11.1% |  |
| NS(=O)(=O)NCc1noc2cc(Cl)ccc12 [Example 1, N-[(6-chloro-benzo[d]isoxazol-3-yl)methyl]-sulfamide] | 66.7% |  | 50% |  |
